Assay results: patent US8722849B2, “Polypeptides” (Novo Nordisk A/S, priority 2011, dated 2014)
≈ marks a conversion by molar mass, not a printed value. Like-named read-outs stand apart in the source and are kept apart here. Starred links: 1 amine or outer side, 2 acyl side, 3 side chain; linkers in the order of their positions; H or OH if unused. Positions of bridges follow the written chain, without caps; N, C: chain ends. Residues, ends and D or L forms follow the SMILES beside them. *: point of attachment. C20 diacid = O=C(O)CCCCCCCCCCCCCCCCCCC(=O)*; γGlu = O=C(O)[C@H](CCC(=O)[*:2])N[*:1]

Assays:
[1] = biological target: T1, human calcitonin receptor (Homo sapiens, UniProt P30988); test: Assay (II)a functional CRE-luciferase assay, human calcitonin receptor; type: cell-based; details: Table 7; human calcitonin (CTa) receptor
T1 construct: expressed in transfected cells; host or cells: BHK570
T1 sequence (P30988 25-474): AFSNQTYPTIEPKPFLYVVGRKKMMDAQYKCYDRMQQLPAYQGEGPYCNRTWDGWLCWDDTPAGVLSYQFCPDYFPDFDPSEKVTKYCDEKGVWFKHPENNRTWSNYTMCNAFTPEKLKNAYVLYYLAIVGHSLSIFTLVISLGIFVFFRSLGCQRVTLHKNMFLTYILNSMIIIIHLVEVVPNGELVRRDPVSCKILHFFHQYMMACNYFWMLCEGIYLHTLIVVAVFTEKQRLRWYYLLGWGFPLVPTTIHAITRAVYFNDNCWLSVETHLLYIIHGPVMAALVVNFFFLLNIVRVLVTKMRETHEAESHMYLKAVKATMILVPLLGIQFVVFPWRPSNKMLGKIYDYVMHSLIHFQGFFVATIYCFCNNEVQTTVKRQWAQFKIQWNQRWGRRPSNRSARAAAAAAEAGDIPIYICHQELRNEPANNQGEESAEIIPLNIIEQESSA

[2] = Assay (IX) pK, determination of T½ in mini-pig; type: in vivo, Göttingen mini-pigs; details: male, Göttingen, iv, 2 nmol/kg; minipig; plasma terminal half-life
[3] = biological target: T2, rat amylin 3(a) receptor (rat calcitonin(a) receptor + rat RAMP3) (Rattus norvegicus, UniProt P32214+Q9JJ73); test: Assay (II)b functional cAMP FlashPlate assay, rat amylin receptor; type: cell-based; details: Table 11
T2 construct: expressed in transfected cells; host or cells: BHK tk'ts 13
T2 sequence (P32214 25-479 isoform P32214-2 limits assumed): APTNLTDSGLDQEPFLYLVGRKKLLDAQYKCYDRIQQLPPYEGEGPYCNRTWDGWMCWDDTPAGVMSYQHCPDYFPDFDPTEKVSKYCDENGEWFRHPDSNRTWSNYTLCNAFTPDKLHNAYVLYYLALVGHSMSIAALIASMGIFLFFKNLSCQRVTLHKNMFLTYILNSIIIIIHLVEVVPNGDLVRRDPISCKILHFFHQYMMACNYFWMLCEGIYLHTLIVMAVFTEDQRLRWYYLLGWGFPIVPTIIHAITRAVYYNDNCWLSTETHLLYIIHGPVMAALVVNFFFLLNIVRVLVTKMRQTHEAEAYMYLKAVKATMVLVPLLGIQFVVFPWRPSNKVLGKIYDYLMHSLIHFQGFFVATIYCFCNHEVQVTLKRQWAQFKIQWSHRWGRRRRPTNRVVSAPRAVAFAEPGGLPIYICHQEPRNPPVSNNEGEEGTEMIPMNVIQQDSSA
T2 sequence (Q9JJ73 23-147 partner): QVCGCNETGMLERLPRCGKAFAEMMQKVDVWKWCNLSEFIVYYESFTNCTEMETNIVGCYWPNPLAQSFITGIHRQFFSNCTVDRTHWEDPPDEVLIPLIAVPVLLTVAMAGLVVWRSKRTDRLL
Procedure, shortened: (§1)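 BHK tk'ts 13 cells transiently transfected with rat calcitonin(a) receptor, alone or with rat RAMP3 (amylin 3(a)), were stimulated 24 hours later with sample for 30 min in buffer containing IBMX. cAMP measured by competitive radioactive FlashPlate assay, scintillation read after 3 h detection incubation.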

[4] = biological target: T3, human amylin receptor (amylin 3(a) receptor: human calcitonin receptor + RAMP-3) (Homo sapiens, UniProt O60896+P30988); test: Assay (II)a functional CRE-luciferase assay, human amylin receptor; type: cell-based; details: Table 2; BHK amylin 3(a)-receptor/CRE-luc cells
T3 construct: expressed in transfected cells; host or cells: BHK570
T3 sequence (P30988 25-474): T1 sequence (P30988 25-474)
T3 sequence (O60896 24-148 partner): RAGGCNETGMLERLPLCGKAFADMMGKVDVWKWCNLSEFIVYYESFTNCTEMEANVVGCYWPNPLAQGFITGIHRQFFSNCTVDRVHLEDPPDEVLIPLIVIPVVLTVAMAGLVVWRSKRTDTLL

[5] = biological target: T4, rat calcitonin (a) receptor (Rattus norvegicus, UniProt P32214); test: Assay (II)b functional cAMP FlashPlate assay, rat calcitonin receptor; type: cell-based; details: Table 11; read-out: CTa receptor rat EC50
T4 construct: expressed in transfected cells; host or cells: BHK tk'ts 13
T4 sequence (P32214 25-479 isoform P32214-2 limits assumed): T2 sequence (P32214 25-479 isoform P32214-2 limits assumed)
Procedure, shortened: as §1

[6] = Assay (IV) determination of solubility; type: physicochemical
Procedure, shortened: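 Polypeptide in water (~500 nmol/ml) mixed 1:1 with 100 mM glycylglycine (pH 3.0–5.0) or bistrispropane (pH 6.0–8.0) buffers. Held 18 hours at room temperature, then centrifuged. Polypeptide remaining in solution quantified by HPLC.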

[7] = cited from earlier work
amylin receptor = biological target: T5, amylin receptor (Homo sapiens, UniProt P30988); details: amylin receptor vs calcitonin receptor, cited from earlier work
T5 sequence (P30988 25-474): T1 sequence (P30988 25-474)

[8] = bistrispropane buffer, pH 6, pH 6.0, read-out: Solubility pH 6.0
[9] = bistrispropane buffer, pH 6.5, pH 6.5, read-out: Solubility pH 6.5
[10] = bistrispropane buffer, pH 7, pH 7.0, 18 hours at room temperature, Table 3, read-out: Solubility pH 7.0
[11] = bistrispropane buffer, pH 7, pH 7.0, read-out: Solubility pH 7.0
[12] = bistrispropane buffer, pH 7.5, pH 7.5, read-out: Solubility pH 7.5
[13] = bistrispropane buffer, pH 8, pH 8.0, read-out: Solubility pH 8.0
[14] = glycylglycine buffer, pH 3, pH 3.0, read-out: Solubility pH 3.0
[15] = glycylglycine buffer, pH 4, pH 4.0, 18 hours at room temperature, Table 2, read-out: Solubility pH 4.0
[16] = glycylglycine buffer, pH 4, pH 4.0, read-out: Solubility pH 4.0
[17] = glycylglycine buffer, pH 5, pH 5.0, read-out: Solubility pH 5.0
[18] = bistrispropane buffer, pH 7, pH 7.0, Table 8, read-out: Solubility pH 7.0
[19] = bistrispropane buffer, pH 7, pH 7.0, Table 9, read-out: Solubility pH 7.0
[20] = bistrispropane buffer, pH 7.5, pH 7.5, Table 9, read-out: Solubility pH 7.5

| EC50 [1] [pM] | half-life [2] [h] | EC50 [3] [pM] | EC50 [4] [pM] | EC50 [5] [pM] | solubility at 18 h [6, 8] [µM] | solubility at 18 h [6, 9] [µM] | solubility at 18 h [6, 10] [µM] | solubility at 18 h [6, 11] [µM] | solubility at 18 h [6, 12] [µM] | solubility at 18 h [6, 13] [µM] | solubility at 18 h [6, 14] [µM] | solubility at 18 h [6, 15] [µM] | solubility at 18 h [6, 16] [µM] | solubility at 18 h [6, 17] [µM] | solubility at 18 h [6, 18] [µM] | solubility at 18 h [6, 19] [µM] | solubility at 18 h [6, 20] [µM] | Molecule | further results |
| --- | --- | --- | --- | --- | --- | --- | --- | --- | --- | --- | --- | --- | --- | --- | --- | --- | --- | --- | --- |
| 163 | 73 | 262 | 152 | 673 | > 200 | 146 (≈ 654 µg/mL) | 102 (≈ 459 µg/mL) | 102 (≈ 459 µg/mL) | 108 (≈ 486 µg/mL) | 146 (≈ 654 µg/mL) | > 200 | > 200 | > 200 | > 200 |  |  |  | CC[C@H](C)[C@H](NC(=O)[C@@H]1CCCN1C(=O)CNC(=O)[C@H](Cc1ccccc1)NC(=O)[C@H](CC(N)=O)NC(=O)[C@H](CC(N)=O)NC(=O)[C@H](CO)NC(=O)[C@H](CO)NC(=O)[C@H](Cc1c[nH]cn1)NC(=O)[C@H](Cc1cnc[nH]1)NC(=O)[C@H](CC(C)C)NC(=O)[C@H](Cc1ccccc1)NC(=O)[C@H](CCC(=O)O)NC(=O)[C@H](C)NC(=O)[C@H](CC(C)C)NC(=O)[C@H](CCCNC(=N)N)NC(=O)[C@H](CCC(N)=O)NC(=O)[C@@H](NC(=O)[C@H](C)NC(=O)[C@@H]1CSSC[C@H](NC(=O)[C@H](CCCCN)NC(=O)CC[C@H](NC(=O)CCCCCCCCCCCCCCCCCCC(=O)O)C(=O)O)C(=O)N[C@@H](CC(N)=O)C(=O)N[C@@H]([C@@H](C)O)C(=O)N[C@@H](C)C(=O)N[C@@H]([C@@H](C)O)C(=O)N1)[C@@H](C)O)C(=O)N[C@@H](CC(C)C)C(=O)N1CCC[C@H]1C(=O)N1CCC[C@H]1C(=O)N[C@H](C(=O)N[C@@H](CC(N)=O)C(=O)N[C@H](C(=O)NCC(=O)N[C@@H](CO)C(=O)N[C@@H](Cc1cnc[nH]1)C(=O)N[C@H](C(=O)N[C@@H](Cc1ccc(O)cc1)C(N)=O)[C@@H](C)O)C(C)C)[C@@H](C)O [Example 55, N-alpha-[(S)-4-Carboxy-4-(19-carboxynonadecanoylamino)butyryl]-[Glu14,His17,His35]-pramlintide] ({C20 diacid-γGlu}-KCNTATCATQRLAEFLHHSSNNFGPILPPTNVGSHTY-NH2; disulfide 2-7) |  |
|  |  |  |  |  |  |  |  |  |  |  |  |  |  |  |  |  |  | salmon calcitonin | plasma half-life [7]: about 45 minutes |
| 387 | 68 | 511 | 111 | 2840 | > 200 | > 200 | > 200 | > 200 | 121 (≈ 544 µg/mL) |  | > 200 | > 200 | > 200 | > 200 | > 200 | > 200 | 121 (≈ 544 µg/mL) | CC[C@H](C)[C@H](NC(=O)[C@@H]1CCCN1C(=O)CNC(=O)[C@H](Cc1ccccc1)NC(=O)[C@H](CC(N)=O)NC(=O)[C@H](CC(N)=O)NC(=O)[C@H](CO)NC(=O)[C@H](CO)NC(=O)[C@H](Cc1c[nH]cn1)NC(=O)[C@H](CCCNC(=N)N)NC(=O)[C@H](CC(C)C)NC(=O)[C@H](Cc1ccccc1)NC(=O)[C@H](CCC(=O)O)NC(=O)[C@H](C)NC(=O)[C@H](CC(C)C)NC(=O)[C@H](CCCNC(=N)N)NC(=O)[C@H](CCC(N)=O)NC(=O)[C@@H](NC(=O)[C@H](C)NC(=O)[C@@H]1CSSC[C@H](NC(=O)[C@H](CCCCN)NC(=O)CC[C@H](NC(=O)CCCCCCCCCCCCCCCCCCC(=O)O)C(=O)O)C(=O)N[C@@H](CC(N)=O)C(=O)N[C@@H]([C@@H](C)O)C(=O)N[C@@H](C)C(=O)N[C@@H]([C@@H](C)O)C(=O)N1)[C@@H](C)O)C(=O)N[C@@H](CC(C)C)C(=O)N1CCC[C@H]1C(=O)N1CCC[C@H]1C(=O)N[C@H](C(=O)N[C@@H](CC(N)=O)C(=O)N[C@H](C(=O)NCC(=O)N[C@@H](CO)C(=O)N[C@@H](Cc1cnc[nH]1)C(=O)N[C@H](C(=O)N[C@@H](Cc1ccc(O)cc1)C(N)=O)[C@@H](C)O)C(C)C)[C@@H](C)O [Example 57, N-alpha-[(S)-4-Carboxy-4-(19-carboxynonadecanoylamino)butyryl]-[Glu14,Arg17,His35]-pramlintide] ({C20 diacid-γGlu}-KCNTATCATQRLAEFLRHSSNNFGPILPPTNVGSHTY-NH2; disulfide 2-7) | solubility at 18 h ([6]; pH 8.0, read-out: Solubility pH 8.0): 80 µM (≈ 360 µg/mL) |
| 53.7 | 105 | 160 | 62 | 76 | > 200 | > 200 | > 200 | > 200 | > 200 | > 200 | > 200 | > 200 | > 200 | > 200 | > 200 | > 200 | > 200 | CC[C@H](C)[C@H](NC(=O)[C@@H]1CCCN1C(=O)CNC(=O)[C@H](Cc1ccccc1)NC(=O)[C@H](CC(N)=O)NC(=O)[C@H](CC(N)=O)NC(=O)[C@H](CO)NC(=O)[C@H](CO)NC(=O)[C@H](Cc1c[nH]cn1)NC(=O)[C@H](Cc1cnc[nH]1)NC(=O)[C@H](CC(C)C)NC(=O)[C@H](Cc1ccccc1)NC(=O)[C@H](CCC(=O)O)NC(=O)[C@H](C)NC(=O)[C@H](CC(C)C)NC(=O)[C@H](CCCNC(=N)N)NC(=O)[C@H](CCC(N)=O)NC(=O)[C@@H](NC(=O)[C@H](C)NC(=O)[C@@H]1CSSC[C@H](NC(=O)[C@H](CCCCN)NC(=O)CC[C@H](NC(=O)CCCCCCCCCCCCCCCCCCC(=O)O)C(=O)O)C(=O)N[C@@H](CC(N)=O)C(=O)N[C@@H]([C@@H](C)O)C(=O)N[C@@H](C)C(=O)N[C@@H]([C@@H](C)O)C(=O)N1)[C@@H](C)O)C(=O)N[C@@H](CC(C)C)C(=O)N1CCC[C@H]1C(=O)N1CCC[C@H]1C(=O)N[C@H](C(=O)N[C@@H](CC(N)=O)C(=O)N[C@H](C(=O)NCC(=O)N[C@@H](CO)C(=O)N[C@@H](CC(N)=O)C(=O)N[C@H](C(=O)N1CCC[C@H]1C(N)=O)[C@@H](C)O)C(C)C)[C@@H](C)O [Example 52, N-alpha-[(S)-4-Carboxy-4-(19-carboxynonadecanoylamino)butyryl]-[Glu14,His17,Pro37]-pramlintide] ({C20 diacid-γGlu}-KCNTATCATQRLAEFLHHSSNNFGPILPPTNVGSNTP-NH2; disulfide 2-7) |  |
|  |  |  |  |  |  |  |  |  |  |  |  |  |  |  |  |  |  | pramlintide | potency on the amylin receptor relative to the calcitonin receptor (amylin receptor): 14 times; potency on the amylin receptor relative to the calcitonin receptor (amylin receptor; listed as Pramlintide): approximately 14 times |
